Among the data in PubChem BioAssay (NCI) are GI50 and TGI values, retold here.

Test systems include DLD-1 colon; HL-60(TB) leukemia; KM20L2 colon; LXFL 529 NSCLC; M19-MEL melanoma; NCI-H23 lung; HCT-15 colon; MDA-MB-231 breast.
Common to all, as to assay: growth of human tumour cells (NCI), 48 h

The structures appear in SMILES notation. Values joined by “and” are separate entries in the source; they are usually repeats but may differ in a detail not shown here. Equal values may be shown once.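 Test compounds were applied to cells in 96-well plates for 48 hours at 5 doses. GI50 marks 50% less growth. At the TGI there is no net growth.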

As for `N#Cc1ccc(Oc2cccc(Oc3ccccc3)c2)cc1C#N`, the GI50 in the experiment with DLD-1 colon, with KM20L2 colon and in the experiment on M19-MEL melanoma was more than 100 µM each time. Moreover, the TGI in the experiment with DLD-1 colon, in the experiment on HL-60(TB) leukemia, in the experiment with KM20L2 colon, in the experiment with LXFL 529 NSCLC, in the experiment on M19-MEL melanoma and in the experiment with NCI-H23 lung was more than 100 µM throughout.
Take `Nc1ccc(C(OC(=O)c2cc3ccccc3c(Cc3c(O)c(C(=O)OC(c4ccc(N)cc4)(c4ccc(N)cc4)c4ccc(N)cc4)cc4ccccc34)c2O)(c2ccc(N)cc2)c2ccc(N)cc2)cc1`: the GI50 is 4.01 µM with HCT-15 colon, 4.04 µM with HL-60(TB) leukemia, 2.8 µM in the experiment with MDA-MB-231 breast and 0.645 µM with NCI-H23 lung. For the same molecule, the TGI in the experiment on HCT-15 colon was more than 100 µM; with HL-60(TB) leukemia, 23.3 µM; with MDA-MB-231 breast it was 8.76 µM; in the experiment on NCI-H23 lung, 17.3 µM.
`C[C@@H](COCCC(=O)N1CCN(c2ncc(C(F)(F)F)cn2)CC1)Nc1cn[nH]c(=O)c1C(F)(F)F`: the GI50 in the experiment on HCT-15 colon was more than 100 µM; with HL-60(TB) leukemia, 16.1 µM; in the experiment on MDA-MB-231 breast it was more than 100 µM; in the experiment on NCI-H23 lung it was 28.3 µM. Moreover, the TGI in the experiment on HCT-15 colon, in the experiment with HL-60(TB) leukemia, in the experiment on MDA-MB-231 breast and with NCI-H23 lung was more than 100 µM each time.
Turning to `NC(=O)c1ccccc1NC(=O)c1ccccc1Cl`, the GI50 in the experiment on HCT-15 colon, with HL-60(TB) leukemia, in the experiment with MDA-MB-231 breast and with NCI-H23 lung was more than 100 µM in each case. Moreover, the TGI in the experiment on HCT-15 colon, in the experiment on HL-60(TB) leukemia, in the experiment with MDA-MB-231 breast and in the experiment with NCI-H23 lung was more than 100 µM each time.
`COc1cc(F)c(/C=C/c2cc(/C=C/c3cc(OC)c(OC)cc3F)n(-c3cc(F)cc(F)c3)n2)cc1OC`: the GI50 is 2.84 µM in the experiment on HCT-15 colon, more than 100 µM in the experiment on HL-60(TB) leukemia, 2.62 µM with MDA-MB-231 breast and 2.53 µM in the experiment on NCI-H23 lung. Besides, the TGI with HCT-15 colon was 9.05 µM; in the experiment on HL-60(TB) leukemia it was more than 100 µM; in the experiment with MDA-MB-231 breast, 8.86 µM; in the experiment with NCI-H23 lung it was 7.15 µM.
Turning to `Cn1cnc2c(F)c(Nc3ccc(Br)cc3F)c(C(=O)NOCCO)cc21`, the GI50 in the experiment with HCT-15 colon was 57.5 µM; in the experiment on HL-60(TB) leukemia it was 0.0193 µM and 0.0192 µM; with MDA-MB-231 breast, 0.111 µM and 0.837 µM; in the experiment with NCI-H23 lung, 0.227 µM and 0.215 µM. In addition, the TGI in the experiment with HCT-15 colon, in the experiment with HL-60(TB) leukemia, in the experiment with MDA-MB-231 breast and in the experiment with NCI-H23 lung was more than 100 µM in each case.
In the case of `NCCCN1CCN(CCCNc2nc3ccccc3c3[nH]c4ccccc4c23)CC1`, the GI50 in the experiment with HCT-15 colon is 0.436 µM; with HL-60(TB) leukemia, 0.425 µM; in the experiment on MDA-MB-231 breast, 0.456 µM; in the experiment with NCI-H23 lung, 0.387 µM. The TGI turned out to be 7.83 µM in the experiment on HCT-15 colon, 3.26 µM with HL-60(TB) leukemia, 1.72 µM with MDA-MB-231 breast and 1.44 µM in the experiment with NCI-H23 lung.
`CC(=O)OC(C)c1cc2c(s1)C(=O)c1c(C(C)OC(C)=O)csc1C2=O` (stereo not drawn): the TGI came out at 4.4 µM in the experiment with HCT-15 colon, 2.15 µM in the experiment with HL-60(TB) leukemia, 3.6 µM with MDA-MB-231 breast and 2.29 µM in the experiment with NCI-H23 lung. Moreover, the GI50 with HL-60(TB) leukemia was 0.0682 µM; with NCI-H23 lung, 0.878 µM.
On to `Cc1nc2c(N3CCCC3)nc(N3CCNCC3)nc2nc1NCc1ccccc1`, for which the GI50 in the experiment on HCT-15 colon was 4.17 µM; in the experiment on HL-60(TB) leukemia, 4.71 µM; in the experiment on MDA-MB-231 breast it was 5.67 µM; in the experiment with NCI-H23 lung, 6.77 µM. Also, the TGI was 8.9 µM and 4.53 µM in the experiment with HCT-15 colon; 13.2 µM and 11.8 µM with HL-60(TB) leukemia; 12.1 µM and 10.1 µM with MDA-MB-231 breast; 12.7 µM and 23.7 µM with NCI-H23 lung.
Consider `Clc1cc(-c2ccccc2)nc2ccccc12`, for which the TGI is 36.5 µM in the experiment with HCT-15 colon, 53.3 µM in the experiment with HL-60(TB) leukemia, more than 100 µM in the experiment with MDA-MB-231 breast and more than 100 µM in the experiment with NCI-H23 lung.
On to `COc1ccc(-c2cc(-c3cccc(NS(C)(=O)=O)c3)nc(N)c2C#N)cc1`, for which the GI50 is 0.108 µM in the experiment on HCT-15 colon, 0.0637 µM in the experiment on HL-60(TB) leukemia, 0.335 µM with MDA-MB-231 breast and 0.256 µM in the experiment with NCI-H23 lung. Moreover, the TGI with HCT-15 colon is 19.4 µM; with HL-60(TB) leukemia, 1.26 µM; in the experiment on MDA-MB-231 breast, 5.14 µM; in the experiment on NCI-H23 lung it was 39.8 µM.
In the case of `CCOc1nccc2c1nc(-c1nonc1N)n2CC`, the GI50 in the experiment with HCT-15 colon, with HL-60(TB) leukemia, in the experiment with MDA-MB-231 breast and in the experiment with NCI-H23 lung was more than 25 µM each time. In addition, the TGI in the experiment with HCT-15 colon, in the experiment with HL-60(TB) leukemia, in the experiment with MDA-MB-231 breast and with NCI-H23 lung was more than 25 µM in each case.
Consider `C=C1CCCC2[C@](C)(CC3=C(O)C(=O)C=C(OC)C3=O)[C@@H](C)CC[C@]12C` (stereo partly drawn), for which the TGI was found to be 69.1 µM in the experiment with DLD-1 colon; 49.6 µM with HCT-15 colon; 9.59 µM in the experiment with HL-60(TB) leukemia; 31.8 µM in the experiment with KM20L2 colon; 27.2 µM with LXFL 529 NSCLC; 5.95 µM in the experiment on M19-MEL melanoma. This molecule also had a TGI with NCI-H23 lung of 12.5 µM.
